Test results: ChEMBL document CHEMBL1201862, “PubChem BioAssay data set” (2004)
Active and inactive are the calls of the source.

Key:
[1] = biological target: Tyrosine-protein kinase Srms (Homo sapiens, UniProt Q9H3Y6); format: functional;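 note: SRMS measured as one member of a kinome-wide kinase profiling panel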
[2] = biological target: Serine/threonine-protein kinase D2 (Homo sapiens, UniProt Q9BZL6); format: functional;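 note: measured against PRKD2 as one member of a kinome-wide kinase profiling panel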
[3] = biological target: Dual specificity tyrosine-phosphorylation-regulated kinase 3 (Homo sapiens, UniProt O43781); format: functional;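 note: measured as one member of a broad kinase panel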
[4] = biological target: Serine/threonine-protein kinase Nek4 (Homo sapiens, UniProt P51957); format: functional
[5] = biological target: MAP/microtubule affinity-regulating kinase 3 (Homo sapiens, UniProt P27448); format: functional;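 note: MARK3 affinity measured as one member of a kinome panel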
[6] = biological target: Interleukin-1 receptor-associated kinase 4 (Homo sapiens, UniProt Q9NWZ3); format: functional
[7] = biological target: Fibroblast growth factor receptor 3 (Homo sapiens, UniProt P22607); format: functional
[8] = biological target: SRSF protein kinase 1 (Homo sapiens, UniProt Q96SB4); format: functional;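 note: measured as one member of a kinome-wide kinase profiling panel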
[9] = biological target: Mitogen-activated protein kinase 8 (Homo sapiens, UniProt P45983); format: functional;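 note: value comes from one member of a kinome-wide kinase profiling panel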
[10] = biological target: Serine/threonine-protein kinase PAK 1 (Homo sapiens, UniProt Q13153); format: functional
[11] = biological target: Casein kinase I isoform delta (Homo sapiens, UniProt P48730); format: functional;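 note: measured as one member (CSNK1D) of a kinome panel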
[12] = biological target: Tyrosine-protein kinase receptor TYRO3 (Homo sapiens, UniProt Q06418); format: functional;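 note: TYRO3 value obtained as one member of a kinome-wide profiling panel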
[13] = biological target: T1, Histone-lysine N-methyltransferase NSD2 (Homo sapiens, UniProt O96028); format: biochemical
T1 sequence (O96028 whole entry): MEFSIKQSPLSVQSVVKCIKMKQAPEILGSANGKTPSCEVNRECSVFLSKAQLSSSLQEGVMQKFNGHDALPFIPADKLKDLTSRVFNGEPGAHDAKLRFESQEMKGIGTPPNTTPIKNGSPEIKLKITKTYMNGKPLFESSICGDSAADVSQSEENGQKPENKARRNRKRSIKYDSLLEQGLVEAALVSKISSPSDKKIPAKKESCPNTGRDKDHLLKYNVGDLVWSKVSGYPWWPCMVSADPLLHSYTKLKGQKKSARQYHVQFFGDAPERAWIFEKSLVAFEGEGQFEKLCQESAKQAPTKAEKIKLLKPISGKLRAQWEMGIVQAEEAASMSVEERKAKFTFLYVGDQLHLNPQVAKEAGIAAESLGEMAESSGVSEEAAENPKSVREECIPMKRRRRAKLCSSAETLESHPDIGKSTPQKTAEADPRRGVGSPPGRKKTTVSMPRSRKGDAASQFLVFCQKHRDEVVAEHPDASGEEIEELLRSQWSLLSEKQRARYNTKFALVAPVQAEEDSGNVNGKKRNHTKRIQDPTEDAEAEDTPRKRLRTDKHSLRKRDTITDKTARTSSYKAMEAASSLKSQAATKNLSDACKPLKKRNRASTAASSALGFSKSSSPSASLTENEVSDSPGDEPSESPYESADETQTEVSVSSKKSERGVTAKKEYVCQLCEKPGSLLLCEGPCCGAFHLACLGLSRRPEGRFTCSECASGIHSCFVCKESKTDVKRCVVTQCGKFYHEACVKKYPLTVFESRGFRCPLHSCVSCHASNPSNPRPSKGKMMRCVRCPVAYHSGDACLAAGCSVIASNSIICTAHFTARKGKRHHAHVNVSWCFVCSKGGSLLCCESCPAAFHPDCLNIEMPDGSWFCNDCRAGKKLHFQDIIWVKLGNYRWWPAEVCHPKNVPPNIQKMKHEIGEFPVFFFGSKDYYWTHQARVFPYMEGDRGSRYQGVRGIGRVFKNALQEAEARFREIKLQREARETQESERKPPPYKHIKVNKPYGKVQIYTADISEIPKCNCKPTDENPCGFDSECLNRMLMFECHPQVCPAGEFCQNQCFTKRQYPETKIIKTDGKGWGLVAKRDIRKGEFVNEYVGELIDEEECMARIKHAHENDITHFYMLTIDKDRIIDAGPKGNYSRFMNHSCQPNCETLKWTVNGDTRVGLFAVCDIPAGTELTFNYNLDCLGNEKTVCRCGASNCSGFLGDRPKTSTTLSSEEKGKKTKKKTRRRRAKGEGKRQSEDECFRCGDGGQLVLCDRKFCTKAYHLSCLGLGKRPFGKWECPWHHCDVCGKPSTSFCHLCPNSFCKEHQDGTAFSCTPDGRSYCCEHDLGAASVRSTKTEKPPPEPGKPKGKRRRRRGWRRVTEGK

Sequence of Serine/threonine-protein kinase D2 (Q9BZL6 whole entry): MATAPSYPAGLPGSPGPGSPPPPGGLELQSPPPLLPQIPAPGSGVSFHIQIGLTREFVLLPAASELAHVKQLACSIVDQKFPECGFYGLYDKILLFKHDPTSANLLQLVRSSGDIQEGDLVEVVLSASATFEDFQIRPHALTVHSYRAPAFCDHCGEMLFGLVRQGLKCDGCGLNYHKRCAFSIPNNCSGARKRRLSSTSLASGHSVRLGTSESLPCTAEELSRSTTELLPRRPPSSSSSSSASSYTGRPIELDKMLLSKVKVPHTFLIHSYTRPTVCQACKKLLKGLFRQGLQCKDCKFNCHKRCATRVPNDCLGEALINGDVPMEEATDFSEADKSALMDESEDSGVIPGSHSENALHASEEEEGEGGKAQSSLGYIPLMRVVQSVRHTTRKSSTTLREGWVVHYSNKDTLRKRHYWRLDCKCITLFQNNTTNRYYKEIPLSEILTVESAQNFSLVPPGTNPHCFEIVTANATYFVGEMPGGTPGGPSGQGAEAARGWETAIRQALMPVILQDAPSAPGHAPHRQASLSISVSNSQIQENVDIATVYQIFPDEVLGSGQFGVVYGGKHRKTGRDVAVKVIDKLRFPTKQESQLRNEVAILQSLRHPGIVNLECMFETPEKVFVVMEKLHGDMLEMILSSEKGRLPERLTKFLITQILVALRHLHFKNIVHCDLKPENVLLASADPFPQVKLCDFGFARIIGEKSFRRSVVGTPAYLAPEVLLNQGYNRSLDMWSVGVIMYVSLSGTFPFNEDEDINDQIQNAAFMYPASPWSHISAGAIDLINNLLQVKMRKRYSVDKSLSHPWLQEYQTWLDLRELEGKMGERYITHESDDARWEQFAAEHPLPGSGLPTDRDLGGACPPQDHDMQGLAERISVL
Sequence of Tyrosine-protein kinase Srms (Q9H3Y6 whole entry): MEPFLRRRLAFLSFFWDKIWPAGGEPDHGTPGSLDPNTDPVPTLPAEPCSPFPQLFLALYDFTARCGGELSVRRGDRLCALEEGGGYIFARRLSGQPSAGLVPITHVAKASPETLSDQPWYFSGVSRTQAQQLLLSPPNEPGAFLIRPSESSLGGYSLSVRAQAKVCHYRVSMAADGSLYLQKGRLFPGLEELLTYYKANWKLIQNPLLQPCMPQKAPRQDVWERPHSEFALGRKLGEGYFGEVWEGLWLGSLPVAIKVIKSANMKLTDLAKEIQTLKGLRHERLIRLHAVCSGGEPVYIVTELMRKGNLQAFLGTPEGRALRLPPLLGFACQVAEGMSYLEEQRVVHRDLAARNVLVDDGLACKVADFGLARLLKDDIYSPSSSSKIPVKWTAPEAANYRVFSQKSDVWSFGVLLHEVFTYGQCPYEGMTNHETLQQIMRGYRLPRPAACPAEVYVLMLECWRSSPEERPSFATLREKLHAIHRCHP
Sequence of Fibroblast growth factor receptor 3 (P22607 whole entry): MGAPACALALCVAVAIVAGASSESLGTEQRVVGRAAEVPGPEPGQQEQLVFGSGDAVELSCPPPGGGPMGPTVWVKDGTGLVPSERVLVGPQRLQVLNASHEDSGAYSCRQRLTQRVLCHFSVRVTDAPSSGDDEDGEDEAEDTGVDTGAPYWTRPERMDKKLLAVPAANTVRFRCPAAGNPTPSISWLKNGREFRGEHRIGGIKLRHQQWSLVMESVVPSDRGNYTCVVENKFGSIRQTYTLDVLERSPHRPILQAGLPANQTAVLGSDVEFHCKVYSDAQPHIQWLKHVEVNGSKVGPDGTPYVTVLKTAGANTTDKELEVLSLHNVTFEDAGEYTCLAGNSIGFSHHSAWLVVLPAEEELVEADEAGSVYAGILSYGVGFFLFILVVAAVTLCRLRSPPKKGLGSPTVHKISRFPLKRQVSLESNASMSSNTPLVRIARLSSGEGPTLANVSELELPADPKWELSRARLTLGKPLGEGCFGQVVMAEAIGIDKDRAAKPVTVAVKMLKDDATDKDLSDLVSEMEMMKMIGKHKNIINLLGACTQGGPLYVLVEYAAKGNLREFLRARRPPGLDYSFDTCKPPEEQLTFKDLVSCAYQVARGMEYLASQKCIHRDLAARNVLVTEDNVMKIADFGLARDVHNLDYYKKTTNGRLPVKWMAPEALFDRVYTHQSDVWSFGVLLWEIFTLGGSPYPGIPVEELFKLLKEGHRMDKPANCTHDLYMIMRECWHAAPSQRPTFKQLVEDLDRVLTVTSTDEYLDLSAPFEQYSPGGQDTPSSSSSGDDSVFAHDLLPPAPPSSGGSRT
Sequence of Casein kinase I isoform delta (P48730 whole entry, canonical isoform): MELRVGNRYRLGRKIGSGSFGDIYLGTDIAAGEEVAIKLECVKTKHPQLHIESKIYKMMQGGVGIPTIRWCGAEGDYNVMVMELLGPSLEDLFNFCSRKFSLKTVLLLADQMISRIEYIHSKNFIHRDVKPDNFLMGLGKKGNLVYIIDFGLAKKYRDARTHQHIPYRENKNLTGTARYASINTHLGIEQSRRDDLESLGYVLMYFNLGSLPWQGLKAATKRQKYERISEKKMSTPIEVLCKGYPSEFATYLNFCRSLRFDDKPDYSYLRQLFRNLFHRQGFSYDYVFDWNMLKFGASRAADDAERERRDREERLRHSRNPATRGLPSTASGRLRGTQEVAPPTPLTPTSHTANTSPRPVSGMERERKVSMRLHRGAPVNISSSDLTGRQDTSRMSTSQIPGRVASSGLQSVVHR
Sequence of Dual specificity tyrosine-phosphorylation-regulated kinase 3 (O43781 whole entry): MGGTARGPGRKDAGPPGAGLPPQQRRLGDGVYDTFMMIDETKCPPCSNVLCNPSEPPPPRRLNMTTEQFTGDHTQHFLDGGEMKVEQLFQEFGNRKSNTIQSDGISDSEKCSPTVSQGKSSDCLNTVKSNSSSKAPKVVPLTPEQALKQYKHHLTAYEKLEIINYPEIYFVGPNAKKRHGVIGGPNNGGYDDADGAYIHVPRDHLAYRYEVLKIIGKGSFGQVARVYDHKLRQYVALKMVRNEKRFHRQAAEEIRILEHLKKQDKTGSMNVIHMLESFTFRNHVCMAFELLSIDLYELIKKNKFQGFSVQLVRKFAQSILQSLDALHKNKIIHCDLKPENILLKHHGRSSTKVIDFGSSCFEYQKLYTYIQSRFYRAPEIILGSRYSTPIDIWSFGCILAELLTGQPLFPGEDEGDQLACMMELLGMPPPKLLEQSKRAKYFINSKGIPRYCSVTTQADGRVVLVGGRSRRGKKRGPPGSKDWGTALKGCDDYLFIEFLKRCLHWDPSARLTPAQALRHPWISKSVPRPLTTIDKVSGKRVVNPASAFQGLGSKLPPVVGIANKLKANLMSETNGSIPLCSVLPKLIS
Sequence of Serine/threonine-protein kinase Nek4 (P51957 whole entry): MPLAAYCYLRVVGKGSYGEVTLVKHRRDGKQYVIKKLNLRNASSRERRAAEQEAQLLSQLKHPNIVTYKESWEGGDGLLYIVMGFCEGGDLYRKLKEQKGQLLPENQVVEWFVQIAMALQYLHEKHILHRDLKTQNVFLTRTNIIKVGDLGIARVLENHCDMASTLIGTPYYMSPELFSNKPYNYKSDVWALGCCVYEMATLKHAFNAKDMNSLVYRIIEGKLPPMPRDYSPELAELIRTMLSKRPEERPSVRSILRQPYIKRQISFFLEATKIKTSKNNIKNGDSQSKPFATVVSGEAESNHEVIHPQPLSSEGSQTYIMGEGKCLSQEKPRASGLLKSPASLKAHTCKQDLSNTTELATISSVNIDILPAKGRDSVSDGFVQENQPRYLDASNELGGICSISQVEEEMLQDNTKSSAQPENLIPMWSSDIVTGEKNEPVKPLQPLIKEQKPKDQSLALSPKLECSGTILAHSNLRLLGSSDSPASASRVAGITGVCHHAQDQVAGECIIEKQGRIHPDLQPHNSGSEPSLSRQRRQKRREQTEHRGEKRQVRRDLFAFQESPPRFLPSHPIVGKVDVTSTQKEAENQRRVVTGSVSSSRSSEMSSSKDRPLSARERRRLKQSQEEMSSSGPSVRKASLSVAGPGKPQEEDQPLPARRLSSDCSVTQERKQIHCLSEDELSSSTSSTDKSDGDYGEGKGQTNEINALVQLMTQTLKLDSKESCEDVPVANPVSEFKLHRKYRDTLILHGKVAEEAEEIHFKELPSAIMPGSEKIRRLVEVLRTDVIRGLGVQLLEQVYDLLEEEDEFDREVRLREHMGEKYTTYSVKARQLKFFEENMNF
Sequence of SRSF protein kinase 1 (Q96SB4 whole entry): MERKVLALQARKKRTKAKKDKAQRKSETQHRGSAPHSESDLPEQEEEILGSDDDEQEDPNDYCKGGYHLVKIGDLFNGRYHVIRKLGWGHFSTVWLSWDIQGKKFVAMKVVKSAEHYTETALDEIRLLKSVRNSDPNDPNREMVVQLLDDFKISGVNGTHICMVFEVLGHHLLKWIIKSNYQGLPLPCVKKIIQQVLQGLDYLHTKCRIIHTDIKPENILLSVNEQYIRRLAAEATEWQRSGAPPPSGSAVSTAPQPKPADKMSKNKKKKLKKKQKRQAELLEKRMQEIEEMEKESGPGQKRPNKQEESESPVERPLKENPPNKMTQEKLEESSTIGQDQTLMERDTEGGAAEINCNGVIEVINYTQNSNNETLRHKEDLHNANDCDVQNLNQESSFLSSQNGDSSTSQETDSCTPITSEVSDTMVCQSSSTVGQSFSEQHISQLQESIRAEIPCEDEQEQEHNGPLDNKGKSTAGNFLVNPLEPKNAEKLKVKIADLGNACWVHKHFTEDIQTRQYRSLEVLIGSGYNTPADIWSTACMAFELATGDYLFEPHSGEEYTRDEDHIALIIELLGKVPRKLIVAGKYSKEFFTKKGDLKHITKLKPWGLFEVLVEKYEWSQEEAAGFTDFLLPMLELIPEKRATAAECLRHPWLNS

| Ki [1] | Ki [2] | Ki [3] | Ki [4] | Ki [5] | Ki [6] | Ki [7] | Ki [8] | Ki [9] | Ki [10] | Ki [11] | Ki [12] | SMILES | AC50 [13] |
| --- | --- | --- | --- | --- | --- | --- | --- | --- | --- | --- | --- | --- | --- |
| > 1.58 µM (inactive) | > 10 µM (inactive) | > 6.31 µM (inactive) | > 6.31 µM (inactive) | 0.794 µM (active) | > 10 µM (inactive) | > 2 µM (inactive) | > 7.94 µM (inactive) | > 3.16 µM (inactive) | > 10 µM (inactive) | > 7.94 µM (inactive) | > 2 µM (inactive) | Cn1cncc1C(OCc1c(-c2ccc(OC(F)(F)F)cc2)cc(C#N)c(=O)n1C)c1ccc(C#N)cc1 (stereo not drawn) | – |
| – | – | – | – | – | – | – | – | – | – | – | – | CCc1ccc(S(=O)(=O)/N=C2\C=C(NS(=O)(=O)c3ccccc3)C(=O)c3ccccc32)cc1 | 5.4 µM (active) |
